In ChEMBL document CHEMBL4118122, “Identification and biological evaluation of thiazole-based inverse agonists of RORγt” (Bioorg Med Chem Lett, 2018):

Tests used:
[1] = molecular target: Muscarinic acetylcholine receptor M3 (Homo sapiens, UniProt P20309); test: Displacement of [3H]4-DAMP from human recombinant M3 receptor at 1 uM after 60 mins by scintillation counting analysis relative to control
[2] = molecular target: C-X-C chemokine receptor type 2 (Homo sapiens) (UniProt P25025); test: Displacement of [125I]IL-8 from human recombinant CXCR2 receptor at 1 uM after 60 mins by scintillation counting analysis relative to control
Rattus norvegicus = species: Rattus norvegicus; test: Displacement of [3H]D 888 from rat brain L-type calcium channel verapamil binding site at 10 uM after 120 mins by scintillation counting analysis relative to control
[3] = Clearance in Sprague-Dawley rat at 1 mg/kg, iv; assay type: ADME, organism-based; conditions: in vivo
[4] = Half life in human microsomes; assay type: ADME, Microsome
[5] = AUC (0 to infinity) in Sprague-Dawley rat at 5 mg/kg, po; assay type: ADME, organism-based; parameters: dose 5 mg/kg, route oral, time infinity; conditions: in vivo
[6] = molecular target: Epidermal growth factor receptor (Homo sapiens) (UniProt P00533); test: Inhibition of recombinant GST-tagged human EGFR (668 to 1210 residues) expressed in baculovirus expression system at 10 uM in presence of ATP relative to control
Nociceptin receptor [7] = molecular target: T1, Nociceptin receptor (Homo sapiens, UniProt P41146); test: Displacement of [3H]nociceptin from human recombinant NOP receptor at 10 uM after 60 mins by scintillation counting analysis relative to control
[8] = molecular target: Neuropeptide Y receptor type 2 (Homo sapiens) (UniProt P49146); test: Displacement of [125I]peptide YY from human Y2 receptor at 1 uM after 120 mins by scintillation counting analysis relative to control
D(1A) dopamine receptor = D(1A) dopamine receptor (Homo sapiens, UniProt P21728); test: Displacement of [3H]-SCH 23390 from human recombinant dopamine D1 receptor at 1 uM after 60 mins by scintillation counting analysis relative to control
[9] = Volume of distribution at steady state in Sprague-Dawley rat at 1 mg/kg, iv; assay type: ADME, organism-based; conditions: in vivo, read-out: Vdss
[10] = molecular target: RAC-alpha serine/threonine-protein kinase (Homo sapiens) (UniProt P31749); test: Inhibition of recombinant full length His-tagged human AKT1 expressed in baculovirus expression system at 10 uM in presence of ATP relative to control
[11] = molecular target: T2, 5-hydroxytryptamine receptor 5A (Homo sapiens, UniProt P47898); test: Displacement of [3H]LSD from human recombinant 5-HT5a receptor after 120 mins by scintillation counting analysis
[12] = molecular target: Delta-type opioid receptor (Homo sapiens, UniProt P41143); test: Displacement of [3H]DADLE from human recombinant delta opioid receptor at 10 uM after 60 mins by scintillation counting analysis relative to control
[13] = molecular target: Neuropeptide Y receptor type 2 (Homo sapiens) (UniProt P49146); test: Displacement of [125I]peptide YY from human Y2 receptor at 10 uM after 120 mins by scintillation counting analysis relative to control
Cytochrome P450 3A4 = Cytochrome P450 3A4 (Homo sapiens, UniProt P08684); test: Inhibition of CYP3A4 (unknown origin); assay type: ADME
[14] = molecular target: T3, 5-hydroxytryptamine receptor 6 (Homo sapiens, UniProt P50406); test: Displacement of [3H]LSD from human recombinant 5-HT6 receptor after 120 mins by scintillation counting analysis
[15] = molecular target: T2, 5-hydroxytryptamine receptor 5A; test: Displacement of [3H]LSD from human recombinant 5-HT5a receptor at 1 uM after 120 mins by scintillation counting analysis relative to control
Nociceptin receptor [16] = molecular target: T1, Nociceptin receptor; test: Displacement of [3H]nociceptin from human recombinant NOP receptor at 1 uM after 60 mins by scintillation counting analysis relative to control
[17] = molecular target: Adrenergic receptor alpha-2 (Rattus norvegicus) (UniProt P22086+P19328+P22909); test: Displacement of [3H]-RX 821002 from rat alpha2 adrenoceptor at 10 uM after 60 mins by scintillation counting analysis relative to control; assay type: protein assay
[18] = molecular target: T4, Nuclear receptor ROR-beta (Homo sapiens, UniProt Q92753); test: Binding affinity to recombinant human RORbeta LBD (201 to 452 residues) expressed in Escherichia coli BL21 (DE3) GOLD by 1,8-ANS dye-based thermofluor assay
T4 sequence (Q92753 whole entry): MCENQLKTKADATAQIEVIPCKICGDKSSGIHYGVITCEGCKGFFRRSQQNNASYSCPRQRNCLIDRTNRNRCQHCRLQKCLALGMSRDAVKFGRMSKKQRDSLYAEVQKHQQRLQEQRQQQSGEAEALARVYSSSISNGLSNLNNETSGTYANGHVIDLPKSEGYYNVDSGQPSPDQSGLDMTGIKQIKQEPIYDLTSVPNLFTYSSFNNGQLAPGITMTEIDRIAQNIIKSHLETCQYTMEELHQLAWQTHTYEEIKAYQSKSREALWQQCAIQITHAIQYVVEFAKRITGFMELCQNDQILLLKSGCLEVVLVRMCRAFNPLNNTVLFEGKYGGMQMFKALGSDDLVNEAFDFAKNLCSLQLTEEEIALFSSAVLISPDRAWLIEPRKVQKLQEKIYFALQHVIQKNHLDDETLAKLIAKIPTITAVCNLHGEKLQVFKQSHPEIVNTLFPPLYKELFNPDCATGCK

[19] = molecular target: T2, 5-hydroxytryptamine receptor 5A; test: Displacement of [3H]LSD from human recombinant 5-HT5a receptor at 10 uM after 120 mins by scintillation counting analysis relative to control
[20] = molecular target: Cyclin-dependent kinase 5/CDK5 activator 1 (Homo sapiens) (UniProt Q00535+Q15078); test: Inhibition of recombinant full length His-tagged human CDK5/p35 expressed in baculovirus expression system at 10 uM in presence of ATP relative to control
[21] = molecular target: Mitogen-activated protein kinase 3 (Homo sapiens) (UniProt P27361); test: Inhibition of recombinant full length GST-tagged human ERK1 expressed in Escherichia coli at 10 uM in presence of ATP relative to control
[22] = molecular target: Insulin-like growth factor 1 receptor (Homo sapiens) (UniProt P08069); test: Inhibition of recombinant His-tagged human IGF1R cytoplasmic domain (960 to […] residues) expressed in baculovirus expression system at 10 uM in presence of ATP relative to control
[23] = molecular target: Serine/threonine-protein kinase PLK3 (Homo sapiens) (UniProt Q9H4B4); test: Inhibition of GST-tagged human PLK3 catalytic domain expressed in baculovirus expression system at 10 uM in presence of ATP relative to control
[24] = molecular target: T3, 5-hydroxytryptamine receptor 6; test: Displacement of [3H]LSD from human recombinant 5-HT6 receptor at 1 uM after 120 mins by scintillation counting analysis relative to control
[25] = molecular target: Endothelin-1 receptor (Homo sapiens) (UniProt P25101); test: Displacement of [125I]-endothelin-1 from human recombinant ETA receptor at 1 uM after 120 mins by scintillation counting analysis relative to control
[26] = molecular target: 5-hydroxytryptamine receptor 1B (Rattus norvegicus) (UniProt P28564); test: Displacement of [125I]-CYP from rat brain 5-HT1B receptor at 1 uM after 120 mins by scintillation counting analysis relative to control
Adenosine receptor A3 = Adenosine receptor A3 (Homo sapiens, UniProt P0DMS8); test: Displacement of [125I]AB-MECA from human recombinant adenosine A3 receptor after 120 mins by scintillation counting analysis
Adenosine receptor A3, sequence (P0DMS8 whole entry): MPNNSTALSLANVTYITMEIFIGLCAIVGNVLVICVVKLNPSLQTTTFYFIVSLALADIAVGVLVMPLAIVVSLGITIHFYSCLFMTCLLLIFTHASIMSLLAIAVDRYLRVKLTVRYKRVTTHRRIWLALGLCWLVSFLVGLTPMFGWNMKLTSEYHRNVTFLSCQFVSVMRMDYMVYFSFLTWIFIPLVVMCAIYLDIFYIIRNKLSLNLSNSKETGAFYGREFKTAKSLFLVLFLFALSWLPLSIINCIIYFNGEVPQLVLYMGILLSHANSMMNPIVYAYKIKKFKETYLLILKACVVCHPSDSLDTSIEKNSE

T2 sequence (P47898 whole entry): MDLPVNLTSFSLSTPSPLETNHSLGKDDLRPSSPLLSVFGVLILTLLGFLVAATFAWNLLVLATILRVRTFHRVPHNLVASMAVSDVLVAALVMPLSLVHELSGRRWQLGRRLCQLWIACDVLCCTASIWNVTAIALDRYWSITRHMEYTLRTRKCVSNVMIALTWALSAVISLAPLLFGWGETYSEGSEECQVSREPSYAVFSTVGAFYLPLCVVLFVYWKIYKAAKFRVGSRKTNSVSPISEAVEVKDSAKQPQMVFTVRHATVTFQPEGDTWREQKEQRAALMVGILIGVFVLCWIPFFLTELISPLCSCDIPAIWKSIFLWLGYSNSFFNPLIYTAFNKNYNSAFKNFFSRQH
T3 sequence (P50406 whole entry): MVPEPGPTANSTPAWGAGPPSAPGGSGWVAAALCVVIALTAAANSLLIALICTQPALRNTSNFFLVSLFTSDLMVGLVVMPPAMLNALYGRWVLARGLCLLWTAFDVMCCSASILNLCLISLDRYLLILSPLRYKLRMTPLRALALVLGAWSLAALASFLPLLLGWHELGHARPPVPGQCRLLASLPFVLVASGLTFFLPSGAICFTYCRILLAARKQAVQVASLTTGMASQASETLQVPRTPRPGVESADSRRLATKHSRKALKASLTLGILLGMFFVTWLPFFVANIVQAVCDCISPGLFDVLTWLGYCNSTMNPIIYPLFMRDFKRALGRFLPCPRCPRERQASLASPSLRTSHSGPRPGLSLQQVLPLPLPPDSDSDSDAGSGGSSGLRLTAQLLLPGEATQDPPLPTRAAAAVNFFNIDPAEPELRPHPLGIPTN
Neuropeptide Y receptor type 2 (Homo sapiens), sequence (P49146 whole entry): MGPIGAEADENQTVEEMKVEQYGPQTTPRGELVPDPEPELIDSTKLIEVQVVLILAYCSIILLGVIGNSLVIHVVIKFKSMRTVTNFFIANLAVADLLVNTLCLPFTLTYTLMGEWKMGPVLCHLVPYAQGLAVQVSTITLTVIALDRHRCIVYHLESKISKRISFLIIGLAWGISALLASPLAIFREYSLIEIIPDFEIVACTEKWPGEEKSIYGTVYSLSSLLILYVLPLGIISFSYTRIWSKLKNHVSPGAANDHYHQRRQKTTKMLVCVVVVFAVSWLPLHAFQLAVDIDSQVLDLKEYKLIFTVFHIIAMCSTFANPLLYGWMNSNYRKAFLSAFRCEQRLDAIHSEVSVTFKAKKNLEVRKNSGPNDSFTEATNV
T1 sequence (P41146 whole entry): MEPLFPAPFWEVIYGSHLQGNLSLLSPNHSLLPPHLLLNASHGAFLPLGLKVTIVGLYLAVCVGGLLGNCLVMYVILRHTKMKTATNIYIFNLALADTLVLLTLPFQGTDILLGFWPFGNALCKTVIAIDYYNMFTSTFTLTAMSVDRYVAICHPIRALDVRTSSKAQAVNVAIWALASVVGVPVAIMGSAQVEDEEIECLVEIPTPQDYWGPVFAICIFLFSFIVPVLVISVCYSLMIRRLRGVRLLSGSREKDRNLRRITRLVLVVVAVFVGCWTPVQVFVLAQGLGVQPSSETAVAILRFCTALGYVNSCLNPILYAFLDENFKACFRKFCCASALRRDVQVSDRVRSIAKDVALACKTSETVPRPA
Endothelin-1 receptor (Homo sapiens), sequence (P25101 whole entry): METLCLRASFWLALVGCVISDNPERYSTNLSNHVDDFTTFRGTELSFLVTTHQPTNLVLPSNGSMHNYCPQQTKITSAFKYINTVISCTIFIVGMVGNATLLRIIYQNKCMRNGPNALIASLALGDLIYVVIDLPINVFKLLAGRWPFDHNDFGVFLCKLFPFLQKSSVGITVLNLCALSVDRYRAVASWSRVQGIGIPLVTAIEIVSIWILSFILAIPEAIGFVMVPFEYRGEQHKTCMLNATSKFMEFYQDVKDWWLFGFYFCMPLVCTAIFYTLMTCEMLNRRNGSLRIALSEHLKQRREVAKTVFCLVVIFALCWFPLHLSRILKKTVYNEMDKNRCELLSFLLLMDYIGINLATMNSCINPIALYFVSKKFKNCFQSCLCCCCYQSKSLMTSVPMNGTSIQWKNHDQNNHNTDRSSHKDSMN
Insulin-like growth factor 1 receptor (Homo sapiens), sequence (P08069 31-736 limits assumed): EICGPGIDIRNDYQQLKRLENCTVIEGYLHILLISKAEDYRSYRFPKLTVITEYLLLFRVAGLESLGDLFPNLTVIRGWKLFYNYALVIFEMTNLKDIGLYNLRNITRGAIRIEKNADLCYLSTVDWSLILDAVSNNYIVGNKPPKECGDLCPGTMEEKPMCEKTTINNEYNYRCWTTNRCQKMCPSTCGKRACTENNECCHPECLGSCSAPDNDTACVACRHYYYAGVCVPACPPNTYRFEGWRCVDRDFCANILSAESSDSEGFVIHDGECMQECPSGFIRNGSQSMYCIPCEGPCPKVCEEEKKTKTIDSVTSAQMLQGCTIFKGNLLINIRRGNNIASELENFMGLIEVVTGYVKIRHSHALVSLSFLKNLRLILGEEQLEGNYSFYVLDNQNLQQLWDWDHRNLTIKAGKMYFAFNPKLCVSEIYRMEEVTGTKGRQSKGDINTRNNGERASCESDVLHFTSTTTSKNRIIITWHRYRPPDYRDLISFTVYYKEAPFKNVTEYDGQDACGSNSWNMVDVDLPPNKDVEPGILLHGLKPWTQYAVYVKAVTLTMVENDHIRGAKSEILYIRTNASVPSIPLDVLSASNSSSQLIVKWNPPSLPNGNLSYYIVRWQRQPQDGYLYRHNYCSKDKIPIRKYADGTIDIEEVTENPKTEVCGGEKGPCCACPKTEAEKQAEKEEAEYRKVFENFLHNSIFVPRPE
Insulin-like growth factor 1 receptor (Homo sapiens), sequence (P08069 741-1367 limits assumed): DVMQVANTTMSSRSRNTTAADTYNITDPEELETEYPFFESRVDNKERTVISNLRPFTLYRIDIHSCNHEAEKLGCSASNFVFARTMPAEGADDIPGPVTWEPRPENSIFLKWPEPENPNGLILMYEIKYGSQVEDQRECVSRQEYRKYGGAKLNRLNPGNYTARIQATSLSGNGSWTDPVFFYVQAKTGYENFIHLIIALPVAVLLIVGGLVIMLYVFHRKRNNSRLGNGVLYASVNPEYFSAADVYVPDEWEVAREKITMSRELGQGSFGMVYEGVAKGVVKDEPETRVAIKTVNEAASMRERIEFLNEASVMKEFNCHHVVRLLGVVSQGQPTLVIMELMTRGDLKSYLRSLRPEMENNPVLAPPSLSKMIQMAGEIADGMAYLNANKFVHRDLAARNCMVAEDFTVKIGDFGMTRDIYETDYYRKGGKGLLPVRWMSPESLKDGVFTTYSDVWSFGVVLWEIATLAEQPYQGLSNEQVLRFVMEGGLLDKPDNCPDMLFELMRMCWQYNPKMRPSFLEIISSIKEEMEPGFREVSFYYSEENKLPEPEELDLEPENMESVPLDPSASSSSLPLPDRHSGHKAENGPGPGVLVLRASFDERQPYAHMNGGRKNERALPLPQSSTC
Delta-type opioid receptor, sequence (P41143 whole entry): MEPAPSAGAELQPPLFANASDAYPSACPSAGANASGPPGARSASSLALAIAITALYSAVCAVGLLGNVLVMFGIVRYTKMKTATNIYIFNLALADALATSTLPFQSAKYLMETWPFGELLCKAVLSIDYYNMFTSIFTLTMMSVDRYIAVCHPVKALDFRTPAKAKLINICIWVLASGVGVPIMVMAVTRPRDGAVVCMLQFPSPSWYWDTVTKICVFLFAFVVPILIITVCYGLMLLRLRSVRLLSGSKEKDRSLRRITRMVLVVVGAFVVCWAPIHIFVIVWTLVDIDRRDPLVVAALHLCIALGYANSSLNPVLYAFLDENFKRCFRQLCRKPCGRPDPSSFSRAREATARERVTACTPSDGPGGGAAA
5-hydroxytryptamine receptor 1B (Rattus norvegicus), sequence (P28564 whole entry): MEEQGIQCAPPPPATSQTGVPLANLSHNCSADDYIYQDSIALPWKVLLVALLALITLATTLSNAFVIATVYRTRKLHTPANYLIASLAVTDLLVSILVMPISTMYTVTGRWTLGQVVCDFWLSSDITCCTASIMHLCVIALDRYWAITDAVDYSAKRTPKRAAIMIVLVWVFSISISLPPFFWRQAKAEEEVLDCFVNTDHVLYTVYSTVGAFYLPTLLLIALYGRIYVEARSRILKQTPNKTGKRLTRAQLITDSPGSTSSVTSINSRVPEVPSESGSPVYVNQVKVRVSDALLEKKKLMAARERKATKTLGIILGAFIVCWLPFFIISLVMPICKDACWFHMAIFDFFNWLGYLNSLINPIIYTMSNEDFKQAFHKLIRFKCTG
Mitogen-activated protein kinase 3 (Homo sapiens), sequence (P27361 whole entry, the tested form may be a part): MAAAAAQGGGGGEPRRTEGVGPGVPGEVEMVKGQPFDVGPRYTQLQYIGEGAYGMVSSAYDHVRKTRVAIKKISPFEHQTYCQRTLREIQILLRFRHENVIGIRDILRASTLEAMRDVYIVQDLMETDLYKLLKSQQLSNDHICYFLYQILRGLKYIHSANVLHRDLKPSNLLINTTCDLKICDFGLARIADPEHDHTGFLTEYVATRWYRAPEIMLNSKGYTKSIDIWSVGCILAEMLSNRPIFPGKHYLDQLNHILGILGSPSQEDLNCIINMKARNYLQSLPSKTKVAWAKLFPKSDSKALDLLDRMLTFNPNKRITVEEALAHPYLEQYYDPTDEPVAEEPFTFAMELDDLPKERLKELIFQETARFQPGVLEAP

CC(C)(C)NS(=O)(=O)c1ccc(-c2sc(C(=O)N[C@H]3C[C@H](C(=O)O)C3)nc2CC2CCCCC2)c2ccccc12
inhibition [1]: < 10% | inhibition [2]: < 10% | inhibition (Rattus norvegicus): < 10% | clearance [3]: 51.4 mL/min/kg | half-life [4]: 1.25 h | AUC(0-inf) [5]: 328 ng·h/mL | inhibition [6]: -3% | inhibition (Nociceptin receptor [7]): < 10% | inhibition [8]: < 10% | inhibition (D(1A) dopamine receptor): < 10% | Vd [9]: 1.1 L/kg | inhibition [10]: -5% | IC50 [11]: 106 nM | inhibition [12]: 22% | inhibition [13]: < 10% | INH (Cytochrome P450 3A4): > 10 µM | IC50 [14]: 254 nM | inhibition [15]: < 10% | inhibition (Nociceptin receptor [16]): < 10% | inhibition [17]: < 10% | Kd [18]: 740 nM | inhibition [19]: 85% | inhibition [20]: -4% | inhibition [21]: -7% | inhibition [22]: -10% | inhibition [23]: -5% | inhibition [24]: < 10% | inhibition [25]: < 10% | inhibition [26]: < 10% | IC50 (Adenosine receptor A3): 0.17 nM
